Experimental data taken from US6906073B2, “Piperazine CCR-3 receptor antagonists” (Roche Palo Alto LLC, priority 2001, dated 2005).
Structures can show the parent of a compound that is named as a salt.

Tests used:
CCR-3 receptor = biological target: T1, CCR-3 receptor (Homo sapiens, UniProt P51677); assay: CCR-3 Receptor Binding Assay - In Vitro (inhibition of 125I eotaxin binding to CCR-3 L1.2 transfectant cells); conditions: inhibition of binding of 125I eotaxin to CCR-3 L1.2 transfectant cells, 1 hour at room temperature
T1 construct: expressed in transfected cells; host or cells: L1.2 (murine pre-B lymphoma line)
T1 sequence (P51677 1-355): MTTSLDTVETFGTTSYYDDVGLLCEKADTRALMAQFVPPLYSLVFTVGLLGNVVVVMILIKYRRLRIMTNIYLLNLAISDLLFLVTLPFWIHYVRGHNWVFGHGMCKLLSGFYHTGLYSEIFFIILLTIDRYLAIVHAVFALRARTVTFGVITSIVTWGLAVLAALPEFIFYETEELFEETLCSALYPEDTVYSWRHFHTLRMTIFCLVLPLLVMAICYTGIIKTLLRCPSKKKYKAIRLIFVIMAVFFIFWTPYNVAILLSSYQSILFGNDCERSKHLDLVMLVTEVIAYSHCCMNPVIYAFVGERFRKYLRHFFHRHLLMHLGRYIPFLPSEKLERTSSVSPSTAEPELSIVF
Protocol: CCR-3 Receptor Binding Assay—In Vitro
The CCR-3 antagonistic activity of the compounds of the invention was determined by their ability to inhibit the binding of ^125I eotaxin to CCR-3 L1.2 transfectant cells (see Ponath, P. D. et al., J. Exp. Med., Vol. 183, 2437-2448, (1996)).
The assay was performed in Costar 96-well polypropylene round bottom plates. Test compounds were dissolved in DMSO and then diluted with binding buffer (50 mM HEPES, 1 mM CaCl2, 5 mM MgCl2, 0.5% bovine serum albumin (BSA), 0.02% sodium azide, pH 7.24) such that the final DMSO concentration was 2%. 25 μl of the test solution or only buffer with DMSO (control samples) was added to each well, followed by the addition of 25 μl of ^125I-eotaxin ([…]) (NEX314, New England Nuclear, Boston, Mass.) and 1.5×10^5 of the CCR-3 L1.2 transfected cells in 25 μl binding buffer. The final reaction volume was 75 μl.
After incubating the reaction mixture for 1 hour at room temperature, the reaction was terminated by filtering the reaction mixture through polyethylenimine treated Packard Unifilter GF/C filter plate (Packard, Chicago, Ill.). The filters were washed four times with ice cold wash buffer containing 10 mm HEPES and 0.5M sodium chloride (pH 7.2) and dried at 65° C. for approximately 10 minutes. 25 μl/well of Microscint-20® scintillation fluid (Packard) was added and the radioactivity retained on the filters was determined by using the Packard TopCount®

With `COc1cc(NC(=O)N[C@@H]2COC[C@H]2N2CCN(Cc3ccc(Cl)cc3)CC2)cc(OC)c1OC` (racemic) (as salt: hydrochloride) [compound 7, (±)-trans-1-{4-[4-(4-chlorobenzyl)-piperazin-1-yl]-tetrahydrofuran-3-yl}-3-(3,4,5-trimethoxyphenyl)urea dihydrochloride] the melting point was 190.8 to 204.3 °C.
For `COc1cc(NC(=O)N[C@@H]2COC[C@H]2N2CCN(Cc3ccc(Cl)cc3)CC2)cc(OC)c1OC` (racemic) [compound 7, (±)-trans-1-{4-[4-(4-chlorobenzyl)-piperazin-1-yl]-tetrahydrofuran-3-yl}-3-(3,4,5-trimethoxyphenyl)urea dihydrochloride], the IC50 (CCR-3 receptor) was 0.11 µM.
`O=C(Cc1cccs1)Nc1ccccc1N1CCN(Cc2ccc(Cl)c(Cl)c2)CC1` [compound 1, N-{2-[4-(3,4-dichloro-benzyl)-piperazin-1-yl]-phenyl}-2-thiophen-2-yl-acetamide] gave an IC50 (CCR-3 receptor) of 200 µM.
For `O=C(Nc1ccccc1N1CCN(Cc2ccc(Cl)c(Cl)c2)CC1)c1ccc(F)c(F)c1` [compound 2, N-{2-[4-(3,4-dichlorobenzyl)-piperazin-1-yl]-phenyl}-3,4-difluoro-benzamide], the IC50 (CCR-3 receptor) was 36 µM.
In the case of `Cc1ccc(C(=O)NC2CCCCC2N2CCN(Cc3ccc(Cl)c(Cl)c3)CC2)cc1` (centres unmarked) [compound 3, N-{2-[4-(3,4-Dichloro-benzyl)-piperazin-1-yl]-cyclohexyl}-4-methyl-benzamide], the IC50 (CCR-3 receptor) is reported as 12.8 µM.
